System: Aβ42 (human neuroglioma H4 cells expressing human wild type APP751)
Assay: In vitro cell screening assay with sandwich ELISA quantification of Aβ42 peptide
Format: cell-based
Settings: H4 cells stably expressing human wild type APP751; Pro293 chemically defined medium; compounds 0.003-10 μM; incubated overnight (16-18 h); supernatant Aβ42 by sandwich ELISA; normalized to DMSO and DAPT; read-out: Aβ42 H4 Prot Fre IC50
Procedure, shortened: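 H4 neuroglioma cells stably expressing human wild-type APP751 were treated in Pro293 medium with compounds (0.003-10 μM, 0.33% DMSO) for 16-18 h at 37° C. Secreted Aβ42 measured by sandwich ELISA (C-terminal capture, 4G8-HRP detection, TMB, 450 nm). IC50 by variable-slope sigmoidal regression on percent of DMSO control.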

For `Cc1cn(-c2ccc(Nc3ncc4c(n3)N(C)C(C)CO4)cc2OC(F)(F)F)cn1` (single isomer, unassigned; (-)) [Example 213A], the IC50 was greater than 3000 nM.

`COc1ccc(C2COc3cnc(Nc4ccc(-n5cnc(C)c5)c(OC)c4)nc3N2C)c(C)c1` (single isomer, unassigned; (+)) [Example 199A] was tested, and the IC50 was 25 nM.

`COc1cc(Nc2ncc3c(n2)N(C)C(c2ccccc2C)CO3)cnc1-n1cnc(C)c1` (single isomer, unassigned; (+)) [Example 171A] gave an IC50 of 11 nM.

`COc1cc(Nc2ncc3c(n2)N(C)C(c2ccccc2)CO3)ccc1-c1ccnc(C)c1` (racemic) [Example 46, N-(3-methoxy-4-(2-methylpyridin-4-yl)phenyl)-8-methyl-7-phenyl-7,8-dihydro-6H-pyrimido[5,4-b][1,4]oxazin-2-amine] showed an IC50 of 48 nM.

Work on `COc1ccc(C2COc3cnc(Nc4ccc(-n5cnc(C)c5)c(OC)c4)nc3N2C)c(Cl)c1` (racemic) [Example 86] yielded an IC50 of 38 nM.

For `COc1cc(Nc2ncc3c(n2)N(C)C(C2COC2)CO3)ccc1-n1cnc(C)c1` (single isomer, unassigned; (-)) [Example 241A], the IC50 was 390 nM.

`COc1cc(Cl)c(C2COc3cnc(Nc4ccc(-n5cnc(C)c5)c(OC)c4)nc3N2C)cc1Cl` (single isomer, unassigned; (-)) [Example 174A] gave an IC50 of 150 nM.

Work on `Cc1cn(-c2ccc(Nc3ncc4c(n3)N(C)C(c3ccccc3)CO4)cc2F)cn1` (racemic) [Example 25] yielded an IC50 of 101 nM.

For `COc1cc(Nc2ncc3c(n2)N(C)C(c2ccccc2C(F)(F)F)CO3)ccc1-c1ccnc(C)c1` (single isomer, unassigned; (+)) [Example 70B], the IC50 was 151 nM.

With `Cc1cn(-c2ccc(Nc3ncc4c(n3)N(C)C(c3cc(F)c(F)c(F)c3)CO4)cc2F)cn1` (single isomer, unassigned; (-)) [Example 118B] the IC50 was 1340 nM.

`COc1cc(Nc2ncc3c(n2)N(C)C(c2ccccc2C)CO3)ccc1-c1ccnc(C)c1` (single isomer, unassigned; (-)) [Example 35A] gave an IC50 of 355 nM.

`COc1cc(Nc2ncc3c(n2)N(C)C(Cc2ccccc2)CO3)ccc1-c1ccnc(C)c1` (single isomer, unassigned; (+)) [Example 68A] gave an IC50 of 50 nM.

Work on `COc1cc(Nc2ncc3c(n2)N(C)C(C)CO3)ccc1-n1cnc(C)c1` (racemic) [Example 52] yielded an IC50 of 205 nM.

In the case of `COc1cc(Nc2ncc3c(n2)N(C)C(C(F)(F)F)CO3)ccc1C#N` (single isomer, unassigned; (-)) [Example 230B, (−)-2-methoxy-4-((8-methyl-7-(trifluoromethyl)-7,8-dihydro-6H-pyrimido [5,4-b] [1, 4]oxazin-2-yl)amino) benzonitrile], the IC50 is reported as 717 nM.

With `COc1cc(Nc2ncc3c(n2)N(C)C(c2cc(F)c(F)c(F)c2)CO3)ccc1-c1ccnc(C)c1` (single isomer, unassigned; (+)) [Example 39A] the IC50 was 41 nM.

`Cc1cn(-c2ccc(Nc3ncc4c(n3)N(C)C(c3ccccc3)CO4)cc2)cn1` (single isomer, unassigned; (-)) [Example 26B] gave an IC50 of 3140 nM.

Work on `Cc1cn(-c2ccc(Nc3ncc4c(n3)N(C)C(c3cc(F)cc(F)c3)CO4)cc2)cn1` (single isomer, unassigned; (+)) [Example 23B] yielded an IC50 of 32 nM.

For `Cc1cn(-c2ncc(Nc3ncc4c(n3)N(C)C(C(F)(F)F)CO4)cc2Cl)cn1` (single isomer, unassigned; (+)) [Example 229B], the IC50 was 2850 nM.

For `COc1cc(Nc2ncc3c(n2)N(C)[C@@H](C(C)(C)C)CO3)cnc1-n1cnc(C)c1` [Example 246], the IC50 was 24 nM.

`Cc1cc(-c2ccc(Nc3ncc4c(n3)N(C)C(c3ccccc3C)CO4)cc2F)ccn1` (racemic) [Example 32] was tested, and the IC50 was 168 nM.

`COc1cc(Nc2ncc3c(n2)N(C)C(c2ccc(F)cc2F)CO3)ccc1-c1ccnc(C)c1` (single isomer, unassigned; (-)) [Example 63A] was tested, and the IC50 was 543 nM.

`COc1cc(Nc2ncc3c(n2)N(C)C(C)CO3)cnc1-n1cnc(C)c1` (single isomer, unassigned; (-)) [Example 185B] gave an IC50 of 540 nM.

From patent US9771378B2 (Denali Therapeutics, Inc., priority 2014, dated 2017)
